Assay results as given in ChEMBL document CHEMBL3885881, “DrugMatrix”.

Species: Rattus norvegicus
Test: DrugMatrix - Regimen: Daily Repeat
Assay type: toxicity, organism-based, Sprague-Dawley
Parameters: regimen Daily Repeat, gender Male, age 6-8 weeks
Conditions: in vivo, po, route oral GAVAGE, […]; for ABSOLUTE BASOPHIL / ABSOLUTE EOSINOPHIL / ABSOLUTE LYMPHOCYTE / ABSOLUTE MONOCYTE / ABSOLUTE SEGMENTED NEUTROPHIL / BASOPHIL / EOSINOPHIL / ERYTHROCYTE COUNT / HEMATOCRIT / HEMOGLOBIN / LEUKOCYTE COUNT / LYMPHOCYTE / MEAN CORPUSCULAR HEMOGLOBIN / MEAN CORPUSCULAR HEMOGLOBIN CONCENTRATION / MEAN CORPUSCULAR VOLUME / MONOCYTE / NEUTROPHIL / NUCLEATED RED BLOOD CELLS / PLATELET COUNT: tissue Blood; for ALANINE AMINOTRANSFERASE / ALBUMIN / ALKALINE PHOSPHATASE / ASPARTATE AMINOTRANSFERASE / BLOOD UREA NITROGEN / CARBON DIOXIDE / CHLORIDE / CHOLESTEROL / CREATINE PHOSPHOKINASE / CREATININE / GLUCOSE / LACTATE DEHYDROGENASE / LIPASE / PHOSPHORUS / POTASSIUM / SODIUM / TOTAL BILIRUBIN / TOTAL PROTEIN / URIC ACID: tissue Plasma
[1] = 0 mg/kg, 72 h, dose level Control, time 3 day
[2] = 0 mg/kg, 120 h, dose level Control, time 5 day
[3] = 35 mg/kg, 72 h, dose level Low, time 3 day
[4] = 35 mg/kg, 120 h, dose level Low, time 5 day

For CC(=O)Oc1ccccc1C(=O)O [ASPIRIN], the “ABSOLUTE BASOPHIL” value [1] was 0 CELLS/uL, the “ABSOLUTE EOSINOPHIL” value [1] was 0 CELLS/uL and the “ABSOLUTE LYMPHOCYTE” value [1] was 6275.67 CELLS/uL. The “ABSOLUTE MONOCYTE” value [1] was 40.67 CELLS/uL, the “ABSOLUTE SEGMENTED NEUTROPHIL” value [1] was 633.67 CELLS/uL and the BASOPHIL [1] was 0%. For the same compound, the EOSINOPHIL [1] was 0%, the “ERYTHROCYTE COUNT” value [1] was 5.2 x10E6/uL and the HEMATOCRIT [1] was 32.78%. For the same compound, the HEMOGLOBIN [1] was 12.98 G/DL, the “LEUKOCYTE COUNT” value [1] was 6.95 x10E3/uL and the LYMPHOCYTE [1] was 90.17%. The “MEAN CORPUSCULAR HEMOGLOBIN” value [1] was 24.97 pg, the “MEAN CORPUSCULAR HEMOGLOBIN CONCENTRATION” value [1] was 39.62 G/DL and the “MEAN CORPUSCULAR VOLUME” value [1] was 63.03 fL. For the same compound, the MONOCYTE [1] was 0.67%, the NEUTROPHIL [1] was 9.17% and the “NUCLEATED RED BLOOD CELLS” value [1] was 0 /100WBC. The “PLATELET COUNT” value [1] was 1082.83 x10E3/uL, the “ALANINE AMINOTRANSFERASE” value [1] was 69.67 u/L and the ALBUMIN [1] was 4.15 G/DL. For the same compound, the “ALKALINE PHOSPHATASE” value [1] was 430.5 u/L, the “ASPARTATE AMINOTRANSFERASE” value [1] was 90.83 u/L and the “BLOOD UREA NITROGEN” value [1] was 13 mg/dL. For the same compound, the “CARBON DIOXIDE” value [1] was 33 mmol/L, the CHLORIDE [1] was 99.17 MEQ/L and the CHOLESTEROL [1] was 70.5 mg/dL. For the same compound, the “CREATINE PHOSPHOKINASE” value [1] was 253.33 u/L, the CREATININE [1] was 0.13 mg/dL and the GLUCOSE [1] was 157.17 mg/dL. The “LACTATE DEHYDROGENASE” value [1] was 85 u/L, the LIPASE [1] was 10 u/L and the PHOSPHORUS [1] was 10.2 mg/dL. For the same compound, the POTASSIUM [1] was 5.78 MEQ/L, the SODIUM [1] was 144.12 MEQ/L and the “TOTAL BILIRUBIN” value [1] was 0.2 mg/dL. For the same compound, the “TOTAL PROTEIN” value [1] was 5.8 G/DL, the “URIC ACID” value [1] was 0.8 mg/dL and the “ABSOLUTE BASOPHIL” value [2] was 0 CELLS/uL. The “ABSOLUTE EOSINOPHIL” value [2] was 0 CELLS/uL, the “ABSOLUTE LYMPHOCYTE” value [2] was 10431 CELLS/uL and the “ABSOLUTE MONOCYTE” value [2] was 90.5 CELLS/uL. For the same compound, the “ABSOLUTE SEGMENTED NEUTROPHIL” value [2] was 1111.83 CELLS/uL, the BASOPHIL [2] was 0% and the EOSINOPHIL [2] was 0%. The “ERYTHROCYTE COUNT” value [2] was 5.51 x10E6/uL, the HEMATOCRIT [2] was 34.67% and the HEMOGLOBIN [2] was 13.5 G/DL. The “LEUKOCYTE COUNT” value [2] was 11.63 x10E3/uL, the LYMPHOCYTE [2] was 89.67% and the “MEAN CORPUSCULAR HEMOGLOBIN” value [2] was 24.5 pg. For the same compound, the “MEAN CORPUSCULAR HEMOGLOBIN CONCENTRATION” value [2] was 38.95 G/DL, the “MEAN CORPUSCULAR VOLUME” value [2] was 62.87 fL and the MONOCYTE [2] was 0.67%. For the same compound, the NEUTROPHIL [2] was 9.67%, the “NUCLEATED RED BLOOD CELLS” value [2] was 0 /100WBC and the “PLATELET COUNT” value [2] was 1052.67 x10E3/uL. For the same compound, the “ALANINE AMINOTRANSFERASE” value [2] was 54.67 u/L, the ALBUMIN [2] was 4.15 G/DL and the “ALKALINE PHOSPHATASE” value [2] was 359.83 u/L. The “ASPARTATE AMINOTRANSFERASE” value [2] was 83 u/L, the “BLOOD UREA NITROGEN” value [2] was 13.5 mg/dL and the “CARBON DIOXIDE” value [2] was 27.17 mmol/L. For the same compound, the CHLORIDE [2] was 98.5 MEQ/L, the CHOLESTEROL [2] was 66.83 mg/dL and the “CREATINE PHOSPHOKINASE” value [2] was 256.17 u/L. For the same compound, the CREATININE [2] was 0.19 mg/dL, the GLUCOSE [2] was 171.33 mg/dL and the “LACTATE DEHYDROGENASE” value [2] was 91.5 u/L. It also gave an LIPASE [2] of 10.5 u/L, a PHOSPHORUS [2] of 8.72 mg/dL and a POTASSIUM [2] of 5.34 MEQ/L. The SODIUM [2] was 142.53 MEQ/L, the “TOTAL BILIRUBIN” value [2] was 0.2 mg/dL and the “TOTAL PROTEIN” value [2] was 6.05 G/DL. The “URIC ACID” value [2] was 0.6 mg/dL, the “ABSOLUTE BASOPHIL” value [3] was 0 CELLS/uL and the “ABSOLUTE EOSINOPHIL” value [3] was 58.67 CELLS/uL. For the same compound, the “ABSOLUTE LYMPHOCYTE” value [3] was 9448 CELLS/uL, the “ABSOLUTE MONOCYTE” value [3] was 29.33 CELLS/uL and the “ABSOLUTE SEGMENTED NEUTROPHIL” value [3] was 530.67 CELLS/uL. The BASOPHIL [3] was 0%, the EOSINOPHIL [3] was 0.67% and the “ERYTHROCYTE COUNT” value [3] was 4.69 x10E6/uL. For the same compound, the HEMATOCRIT [3] was 30.17%, the HEMOGLOBIN [3] was 12.1 G/DL and the “LEUKOCYTE COUNT” value [3] was 10.07 x10E3/uL. For the same compound, the LYMPHOCYTE [3] was 93.33%, the “MEAN CORPUSCULAR HEMOGLOBIN” value [3] was 25.83 pg and the “MEAN CORPUSCULAR HEMOGLOBIN CONCENTRATION” value [3] was 40.1 G/DL. The “MEAN CORPUSCULAR VOLUME” value [3] was 64.4 fL, the MONOCYTE [3] was 0.33% and the NEUTROPHIL [3] was 5.67%. For the same compound, the “NUCLEATED RED BLOOD CELLS” value [3] was 0 /100WBC, the “PLATELET COUNT” value [3] was 951 x10E3/uL and the “ALANINE AMINOTRANSFERASE” value [3] was 86 u/L. The ALBUMIN [3] was 4.17 G/DL, the “ALKALINE PHOSPHATASE” value [3] was 369 u/L and the “ASPARTATE AMINOTRANSFERASE” value [3] was 104.67 u/L. The “BLOOD UREA NITROGEN” value [3] was 13.5 mg/dL, the “CARBON DIOXIDE” value [3] was 32 mmol/L and the CHLORIDE [3] was 101.33 MEQ/L. For the same compound, the CHOLESTEROL [3] was 79.33 mg/dL, the “CREATINE PHOSPHOKINASE” value [3] was 304 u/L and the CREATININE [3] was 0.15 mg/dL. The GLUCOSE [3] was 156 mg/dL, the “LACTATE DEHYDROGENASE” value [3] was 85.33 u/L and the LIPASE [3] was 23.33 u/L. The PHOSPHORUS [3] was 9.53 mg/dL, the POTASSIUM [3] was 5.79 MEQ/L and the SODIUM [3] was 145.73 MEQ/L. The “TOTAL BILIRUBIN” value [3] was 0.2 mg/dL, the “TOTAL PROTEIN” value [3] was 5.7 G/DL and the “URIC ACID” value [3] was 0.53 mg/dL. For the same compound, the “ABSOLUTE BASOPHIL” value [4] was 0 CELLS/uL, the “ABSOLUTE EOSINOPHIL” value [4] was 0 CELLS/uL and the “ABSOLUTE LYMPHOCYTE” value [4] was 9532 CELLS/uL. The “ABSOLUTE MONOCYTE” value [4] was 142 CELLS/uL, the “ABSOLUTE SEGMENTED NEUTROPHIL” value [4] was 926 CELLS/uL and the BASOPHIL [4] was 0%. The EOSINOPHIL [4] was 0%, the “ERYTHROCYTE COUNT” value [4] was 5.39 x10E6/uL and the HEMATOCRIT [4] was 34.33%. For the same compound, the HEMOGLOBIN [4] was 13.4 G/DL, the “LEUKOCYTE COUNT” value [4] was 10.6 x10E3/uL and the LYMPHOCYTE [4] was 90%. The “MEAN CORPUSCULAR HEMOGLOBIN” value [4] was 24.83 pg, the “MEAN CORPUSCULAR HEMOGLOBIN CONCENTRATION” value [4] was 39.03 G/DL and the “MEAN CORPUSCULAR VOLUME” value [4] was 63.63 fL. The MONOCYTE [4] was 1.33%, the NEUTROPHIL [4] was 8.67% and the “NUCLEATED RED BLOOD CELLS” value [4] was 0 /100WBC. For the same compound, the “PLATELET COUNT” value [4] was 1012.67 x10E3/uL, the “ALANINE AMINOTRANSFERASE” value [4] was 59 u/L and the ALBUMIN [4] was 4.1 G/DL. The “ALKALINE PHOSPHATASE” value [4] was 356.67 u/L, the “ASPARTATE AMINOTRANSFERASE” value [4] was 89.33 u/L and the “BLOOD UREA NITROGEN” value [4] was 11.33 mg/dL. The “CARBON DIOXIDE” value [4] was 27.67 mmol/L, the CHLORIDE [4] was 98.67 MEQ/L and the CHOLESTEROL [4] was 69 mg/dL. The “CREATINE PHOSPHOKINASE” value [4] was 329.67 u/L, the CREATININE [4] was 0.17 mg/dL and the GLUCOSE [4] was 164.33 mg/dL. The “LACTATE DEHYDROGENASE” value [4] was 89 u/L, the LIPASE [4] was 11.67 u/L and the PHOSPHORUS [4] was 9.13 mg/dL. The POTASSIUM [4] was 5.65 MEQ/L, the SODIUM [4] was 145.03 MEQ/L and the “TOTAL BILIRUBIN” value [4] was 0.2 mg/dL. For the same compound, the “TOTAL PROTEIN” value [4] was 6.13 G/DL and the “URIC ACID” value [4] was 0.57 mg/dL.
